The text below walks through data of ChEMBL document CHEMBL1155523, “Synthesis and biological activity of alpha-L-fucosyl ceramides, analogues of the potent agonist, alpha-D-galactosyl ceramide KRN7000” (2010).

The test system of the test is iNKT. Nature of the test: Effect on immune response in human iNKT cells stimulated by antigen-presenting CD1d assessed as cellular expansion at 250 nM after 8 days by FACSCalibur flow cytometry relative to control. Format: functional. On the technique in general: In flow cytometry, cells or beads pass a laser one at a time.
In the case of `CCCCCCCCCCCCCCCCCCCCCCCCCC(=O)N[C@@H](CO[C@@H]1O[C@@H](C)[C@@H](O)[C@H](O)[C@@H]1O)[C@H](O)[C@H](O)CCCCCCCCCCCCCC`, the Activity came to 12%.
Consider `CCCCC/C=C\C/C=C\CCCCCCCCCC(=O)N[C@@H](CO[C@@H]1O[C@@H](C)[C@@H](O)[C@H](O)[C@@H]1O)[C@H](O)[C@H](O)CCCCCCCCCCCCCC`, for which the Activity is recorded as 0.56%.
The same measure for `CCCCCCCCCCCCCCCCC(O)C(=O)N[C@@H](CO[C@@H]1O[C@@H](C)[C@@H](O)[C@H](O)[C@@H]1O)[C@H](O)[C@H](O)CCCCCCCCCCCCCC` (stereo not given in full): 2.9%.
The same measure for `CCCCCCCCCCCCCCCCCCCCCCCC(=O)N[C@@H](CO[C@@H]1O[C@@H](C)[C@@H](O)[C@H](O)[C@@H]1O)[C@H](O)[C@H](O)CCCCCCCCCCCCCC`: 1.1%; for `CCCCCCCCCCCCCCCCCCCCCCCCCC(=O)N[C@@H](CO[C@H]1O[C@H](CO)[C@H](O)[C@H](O)[C@H]1O)[C@H](O)[C@H](O)CCCCCCCCCCCCCC` [RGI-7000]: 26%.
